Results as given in patent EP4656642A1, “ESTROGEN RECEPTOR PROTEOLYSIS TARGETING CHIMERA COMPOUND AND USE THEREOF” (GAN & LEE PHARM CO., LTD, priority 2023, dated 2024).

Key:
Format in all cases: cell-based
[1] = molecular target: T1, ERα (Homo sapiens, UniProt P03372); test: Degradation of ERα in T-47D cells (immunoblotting, 4 h); parameters: host or cells: T-47D
T1 sequence (P03372 1-595): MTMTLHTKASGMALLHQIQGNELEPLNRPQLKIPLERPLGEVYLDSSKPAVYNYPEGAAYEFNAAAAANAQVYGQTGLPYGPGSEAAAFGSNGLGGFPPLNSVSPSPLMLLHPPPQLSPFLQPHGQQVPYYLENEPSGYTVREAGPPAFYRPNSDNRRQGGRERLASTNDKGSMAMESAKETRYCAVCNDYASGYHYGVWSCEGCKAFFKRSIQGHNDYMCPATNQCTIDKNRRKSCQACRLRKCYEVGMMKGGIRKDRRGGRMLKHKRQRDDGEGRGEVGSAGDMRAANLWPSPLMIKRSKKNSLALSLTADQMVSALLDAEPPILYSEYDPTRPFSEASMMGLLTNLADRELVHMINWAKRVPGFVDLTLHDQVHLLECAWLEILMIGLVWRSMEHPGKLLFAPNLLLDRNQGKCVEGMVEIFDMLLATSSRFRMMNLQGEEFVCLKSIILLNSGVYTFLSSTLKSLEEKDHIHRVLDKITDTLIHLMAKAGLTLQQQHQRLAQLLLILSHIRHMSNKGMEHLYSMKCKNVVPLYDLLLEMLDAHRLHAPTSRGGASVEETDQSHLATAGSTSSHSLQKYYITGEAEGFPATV
Method in brief: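 T-47D cells were treated with compound (final 0.15-1000 nM, DMSO) for 4 h at 37°C, 5% CO2. Cells were lysed in RIPA buffer with protease inhibitor, and ERα protein in the cleared lysate was measured by immunoblotting.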

[2] = tested on: T-47D cells; test: Inhibition of cell proliferation in T-47D cells (CCK-8, 6 days); details: 6 days of treatment, Table 2
Method in brief: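 T-47D cells at 3,000 cells/well in RPMI 1640 with 10% FBS were exposed to a concentration series of PROTAC compounds for 6 days at 37 °C, 5% CO2. Viability was read by CCK-8, and IC50 values were derived for proliferation inhibition.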

[3] = tested on: MCF-7 cells; test: Inhibition of cell proliferation of MCF-7 cells (CCK-8, 6 days); details: 6 days of treatment, Table 4
Description: Test Example 3 Inhibitory effect of the PROTAC compounds provided in the present disclosure on cell proliferation of MCF-7 cells
The complete medium required for MCF-7 cells (source ATCC) was DMEM (gibco, Product number :11995-065) basal medium containing 10% fetal bovine serum. MCF-7 cells were inoculated in 96-well plates at a density of 800 cells/well, and different concentrations of the PROTAC compounds 1-55 provided in the examples of the present disclosure and a positive control sample ARV-471 (source: Innochem) were prepared to treat the cells, and the cells were treated at 37°C in a cell culture incubator with 5% CO2 for 6 days. Cell viability was detected using a CCK-8 kit (Beyotime, Product number: C0040) according to the manufacturer's instructions. The IC50 values of each PROTAC compound after 6 days of treatment were calculated using GraphPadPrism software based on the inhibition rate, and the results are shown in Table 4. Table 4 IC50 values for inhibition of the proliferation of MCF-7 cells by the PROTAC compounds of the present disclosure and positive control sample

[4] = molecular target: T1, ERα; test: Degradation of ERα in MCF-7 cells (immunoblotting, 4 h); details: 10nM compound
Method in brief: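 MCF-7 cells treated 4 h at 37°C with compounds at 0.15-1000nM final. ERα in lysates measured by immunoblot, with band grayscale normalized to an internal reference protein. Degradation rate calculated against DMSO-treated control.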

[5] = molecular target: T2, AR protein (Homo sapiens, UniProt P10275, T878A); test: Degradation of AR protein in LNCAP cells (Western blot, 8 h); details: LNCaP FGC cells
T2 construct: host or cells: LNCaP FGC
T2 sequence (P10275 1-920 T878A): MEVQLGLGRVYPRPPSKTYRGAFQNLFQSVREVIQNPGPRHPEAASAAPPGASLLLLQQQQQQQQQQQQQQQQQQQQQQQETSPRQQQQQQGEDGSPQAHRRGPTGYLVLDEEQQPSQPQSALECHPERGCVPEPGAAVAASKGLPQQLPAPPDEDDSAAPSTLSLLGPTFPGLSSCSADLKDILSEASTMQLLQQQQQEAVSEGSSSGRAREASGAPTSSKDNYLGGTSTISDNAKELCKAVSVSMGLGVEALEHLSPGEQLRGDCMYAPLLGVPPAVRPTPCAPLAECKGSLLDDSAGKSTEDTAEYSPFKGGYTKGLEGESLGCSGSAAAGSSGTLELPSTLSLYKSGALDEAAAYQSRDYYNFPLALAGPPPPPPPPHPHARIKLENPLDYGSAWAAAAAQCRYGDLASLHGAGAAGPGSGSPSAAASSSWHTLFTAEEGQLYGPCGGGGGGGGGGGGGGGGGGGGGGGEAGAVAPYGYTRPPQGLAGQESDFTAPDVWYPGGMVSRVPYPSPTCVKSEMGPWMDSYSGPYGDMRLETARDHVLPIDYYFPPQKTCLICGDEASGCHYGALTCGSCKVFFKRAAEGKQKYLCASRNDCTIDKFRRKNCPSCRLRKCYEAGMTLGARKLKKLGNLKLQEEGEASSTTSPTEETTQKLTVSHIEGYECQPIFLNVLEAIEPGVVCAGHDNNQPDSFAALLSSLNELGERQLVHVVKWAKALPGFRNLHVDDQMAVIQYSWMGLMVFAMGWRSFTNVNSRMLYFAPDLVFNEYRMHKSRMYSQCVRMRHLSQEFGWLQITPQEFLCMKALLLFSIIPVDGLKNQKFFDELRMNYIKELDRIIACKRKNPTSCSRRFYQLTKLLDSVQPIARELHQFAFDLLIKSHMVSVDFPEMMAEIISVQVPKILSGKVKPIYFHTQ
Procedure: After 8 h, the culture medium was discarded, and the cells were washed with PBS. After the cells were washed with PBS, RIPA lysis buffer containing 1% Protease Inhibitor Cocktail was added, and the total protein extract was obtained after lysis and centrifugation, and the protein concentration in the extract was detected by BCA method. Protein electrophoresis was carried out by SDS-PAGE, after which the proteins were transferred to PVDF (Millipore Sigma Catalog No. PSRP010R5) membrane by 100V constant voltage electrotransfer for 60 min, and the PVDF membrane was placed in 1×TBST solution with 5% milk and blocked at room temperature for 1h. […] The primary antibody solution was discarded, and the PVDF membrane was washed three times with 1× TBST for 5 min each. […] The secondary antibody solution was discarded, and the PVDF membrane was washed three times with 1× TBST for 5 min each. Western membrane imaging was performed using a dual-color infrared laser imaging system (Licor catalog number Odyssey CLX). Bands were analyzed in grayscale using the software Image Studio. For each sample, GAPDH protein bands were detected as internal reference. The degradation rates of the AR protein for the compounds and positive control sample were calculated based on the grayscale of the protein bands.

Row | Compound | Degradation rate (%) of ERα in T-47D cells ([1]; 1nM compound) | Degradation rate (%) of ERα in T-47D cells ([1]; 10nM compound) | IC50 [2] | IC50 [3] | Degradation rate (%) of ERα in MCF-7 cells [4] | Degradation rates of the AR protein in LNCAP cells, 10 nM (%) [5] | Degradation rates of the AR protein in LNCAP cells, 100 nM (%) [5]
1 | O=C1CCC(N2Cc3cc4c(cc3C2=O)OC2(CC4)CCN(C3CCC4(CC3)CCN(c3ccc(C5c6ccc(O)cc6CCC5c5ccccc5)cc3)CC4)CC2)C(=O)N1 (stereo not shown) [A22] | – | 19% | 57 nM | 940 nM | 13% | – | –
2 | O=C1CCC(N2Cc3cc4c(cc3C2=O)OC2(CC4)CN(C3CCC4(CC3)CCN(c3ccc(C5c6ccc(O)cc6CCC5c5ccccc5)cc3)CC4)C2)C(=O)N1 (stereo not shown) [A30] | – | 46% | 11.8 nM | 30200 nM | 23% | – | –
3 | O=C1CCC(N2C(=O)c3cc4c(cc3C2=O)OC2(CC4)CCN(c3ccc(C4c5ccc(O)cc5CCC4c4ccccc4)cc3)CC2)C(=O)N1 (stereo not shown) [A7] | – | -14% | 167 nM | 99900 nM | -29% | – | –
4 | O=C1CCC(N2Cc3cc4c(cc3C2=O)CCC2(CCN(CC3CCN(c5ccc(C6c7ccc(O)cc7CCC6c6ccccc6)cc5)C3)CC2)O4)C(=O)N1 (stereo not shown) [B4] | – | -9% | 56.9 nM | 10000 nM | -34% | – | –
5 | O=C1CCC(N2Cc3cc4c(cc3C2=O)OCC2(CCN(C3CCC5(CC3)CCN(c3ccc(C6c7ccc(O)cc7CCC6c6ccccc6)cc3)CC5)CC2)O4)C(=O)N1 (stereo not shown) [A26] | – | 40% | 21 nM | 3780 nM | 13% | – | –
6 | O=C1CCC(N2C(=O)c3cc4c(cc3C2=O)OC2(CC4)CCN(CC3CN(c4ccc(C5c6ccc(O)cc6CCC5c5ccccc5)cc4)C3)CC2)C(=O)N1 (stereo not shown) [A6] | – | -23% | 177 nM | 48200 nM | -17% | – | –
7 | C[C@H]1CC2(CCN(c3ccc(C(=O)N4CCC(CN5CCC6(CC5)COc5cc7c(cc56)CN(C5CCC(=O)NC5=O)C7=O)CC4)cc3)CC2)CN1c1ccc(C#N)c(Cl)c1 (stereo partly shown) [2-384] | – | – | – | – | – | 48% | 63%
8 | C[C@H]1CC2(CCN(c3ccc(N4CCC(CN5CCC6(CC5)COc5cc7c(cc56)CN(C5CCC(=O)NC5=O)C7=O)CC4)cc3)CC2)CN1c1ccc(C#N)c(Cl)c1 (stereo partly shown) [2-376] | – | – | – | – | – | 20% | 70%

Second part, the molecule after the results:

Row | Degradation rate (%) of ERα in T-47D cells ([1]; 1nM compound) | Degradation rate (%) of ERα in T-47D cells ([1]; 10nM compound) | IC50 [2] | IC50 [3] | Degradation rate (%) of ERα in MCF-7 cells [4] | Degradation rates of the AR protein in LNCAP cells, 10 nM (%) [5] | Degradation rates of the AR protein in LNCAP cells, 100 nM (%) [5] | Compound
9 | 17% | 56% | 17 nM | 13600 nM | – | – | – | O=C1CCC(N2Cc3cc4c(cc3C2=O)OCC2(CCN(C3CC5(CCN(c6ccc(C7c8ccc(O)cc8CCC7c7ccccc7)cc6)CC5)C3)CC2)O4)C(=O)N1 (stereo not shown) [M7]
10 | – | – | 117 nM | 44100 nM | – | – | – | O=C1CCC(N2Cc3cc4c(cc3C2=O)CCC2(CCN(CC3CN(c5ccc(C6c7ccc(O)cc7CCC6c6ccccc6)cc5)C3)CC2)O4)C(=O)N1 (stereo not shown) [M1]
11 | – | – | 313 nM | 5660 nM | – | – | – | O=C1CCC(N2Cc3cc4c(cc3C2=O)OC2(CC4)CCN(C3CC4(C3)CN(c3ccc(C5c6ccc(O)cc6CCC5c5ccccc5)cc3)C4)CC2)C(=O)N1 (stereo not shown) [M5]
12 | – | – | 22 nM | 51700 nM | – | – | – | O=C1CCC(N2Cc3cc4c(cc3C2=O)OC2(CC4)CN(C3CC4(CCN(c5ccc(C6c7ccc(O)cc7CCC6c6ccccc6)cc5)CC4)C3)C2)C(=O)N1 (stereo not shown) [M8]
13 | – | – | 130 nM | 53600 nM | – | – | – | O=C1CCC(N2C(=O)c3cc4c(cc3C2=O)OCC2(CCN(CC3CN(c5ccc(C6c7ccc(O)cc7CCC6c6ccccc6)cc5)C3)CC2)C4)C(=O)N1 (stereo not shown) [O1]
14 | – | – | 202 nM | 86800 nM | – | – | – | O=C1CCC(N2C(=O)c3cc4c(cc3C2=O)OC2(CC4)CCN(C3CC4(C3)CN(c3ccc(C5c6ccc(O)cc6CCC5c5ccccc5)cc3)C4)CC2)C(=O)N1 (stereo not shown) [O3]
15 | 22% | 54% | 11 nM | 4380 nM | – | – | – | O=C1CCC(N2Cc3cc4c(cc3C2=O)CCC2(CCN(C3CC5(CCN(c6ccc(C7c8ccc(O)cc8CCC7c7ccccc7)cc6)CC5)C3)CC2)O4)C(=O)N1 (stereo not shown) [M6]
